Measured values: patent publication US4965259A, “Dioxazocine derivatives compositions and methods containing them having antidepressive, spasmolytic, anticonvulsive, and antiarrhythmic properties” (EGIS Gyogyszergyar, priority 1987, dated 1990)
Values joined by “and” are separate entries in the source; they are usually repeats but may differ in a detail not shown here. Identical values can stand only once. Counter-ions that a name gives are not always drawn. Like-named read-outs stand apart in the source and are kept apart here.

Legend:
[1] = tested on: mice; test: Motility inhibiting activity (Dews equipment); format: in vivo; details: for ED50: Mus musculus, po, 0.5 h, interruptions of infrared beam within 30 minutes; for Therapeutical index LD50/ED50: motility inhibition, p.o.
Protocol: The tests were performed according to the method of Borsy et al. [Arch. Int. Pharmacolyn., 124, 1-2 (1960)]. […] Then the test animals were placed in a Dews equipment. In this equipment the number of interruptions of infrared beam within 30 minutes was counted. The percentual deviation from the number of interruptions in the case of the control group was determined in each group, then the ED50 -values and therapeutical indexes were calculated.

[2] = tested on: sleep induced with hexobarbital; test: Narcosis potentiating activity (sleep induced with hexobarbital on mice); format: in vivo; details: for Therapeutical index LD50/ED50: p.o.; for ED50: Mus musculus, po, 1 h before hexobarbital 40 mg/kg i.v., positive = sleep exceeding control mean by factor 2,5
Protocol: Groups consisting of 6 mice each were treated with the compound to be examined, perorally. After one hour, hexobarbital [5-(1-cyclohexenyl)-1,5-dimethylbarbituric acid] was injected, intravenously, at a dosage of 40 mg/kg. The control group was treated only with hexobarbital to provoke sleep. The duration of sleep was recorded. If the duration of sleep of an animal exceeded that of the mean value of the control group by a factor of 2,5, it was considered as a positive reaction. From the data referring to the animals indicating a positive reaction, the ED50 -value was calculated. From the values of LD50 and ED50, the therapeutical index was determined for each compound tested.

[3] = tested on: tremor induced by tremorine; test: Inhibition of tremor induced by tremorine on mice; format: in vivo; details: for ED50: Mus musculus, po, 1 h before tremorine 20 mg/kg i.p., evaluated 45 minutes after tremorine; for Therapeutical index LD50/ED50: tremorine tremor, p.o.
Protocol: The tests were carried out according to Everett [Science, 124, 79 (1956)]. Tremor was induced by tremorine [1,1'-(2-butynylene)-dipyrrolidine] administered intraperitoneally at a dosage of 20 mg/kg. The compounds to be examined were given perorally to the animals one hour prior to the administration of tremorine, and the tremor developed was evaluated 45 minutes after the administration of tremorine.

[4] = tested on: electroshock provoked by electric current; test: Anticonvulsive activity on mice (inhibition of electroshock); format: in vivo; details: for ED50: Mus musculus, po
Protocol: The tests were carried out according to the method of Swinyard et al. [I. Pharmacol. Exp. Ther., 106, 319-330 (1952)] which method is based on the inhibition of electroshock provoked by electric current on mice. The compounds to be tested were administered perorally. One hour later electroshocks were given by using corneal electrodes. The frequency of the electroshocks was 50 Hz, the current intensity 45 mA and the duration 0.4 sec. The full inhibition of the tonic-extensoric spasm on the hind limbs was considered as the criterium of the anticonvulsive activity. As reference compound phenobarbital, trimetadone and traboxopin were used.

[5] = tested on: tonic-extensoric spasms on the hind limbs (pentetrazole); test: Spasmolytic action on mice (pentetrazole-induced tonic-extensoric spasms); format: in vivo, white mice; details: for ED50: Mus musculus, po; for Therapeutical index LD50/ED50: pentetrazole spasm
Protocol: The tests were carried out according to the method of Banzinger and Hane which was adapted to white mice [Arch. Int. Pharmacolyn., 167, 245-249 (1959)]. The test animals were treated perorally with the compounds to be tested. One hour after the administration pentetrazole (6,7,8,9,-tetrahydro-5H-tetrazolozepine) was given intraperitoneally in a dosis of 125 mg/kg. The tonic-extensoric spasms on the hind limbs were registered.

[6] = Acute toxicity on white mice (LD50 p.o.); design: species or system strain CFLP, both sexes; details: mouse, in vivo, po
Protocol: Acute toxicity of the compounds was tested on white mice of both sexes from the strain CFLP in groups consisting of 10 animals weighing 18 to 22 g. The compounds to be tested were administered perorally in a volume of 20 ml/kg. […] The animals could consume tap water and standard mouse feed ad libitum. The LD50 -values were determined according to Litchfield and Wilcoxon [J. Pharmacol. Exp. Ther., 96, 99 (1949)].

[7] = tested on: tetrabenazine ptosis; test: Antagonism of tetrabenazine ptosis on mice; details: for ED50: Mus musculus, po; for Therapeutical index LD50/ED50: tetrabenazine ptosis, mice, p.o.
Protocol: Groups consisting of 10 mice each were treated, perorally, with different doses of the compounds to be tested. The control group was treated only with the corresponding carrier. After 30 minutes, tetrabenazine [3-isobutyl-9,10-dimethoxy-1,2,3,4,6,7-hexahydrobenzo[a]quinolizine-2-one]was administered intraperitoneally at a dosage of 50 mg/kg. The number of animals having closed palpebral fissure was determined in each group after 30, 60, 90 and 120 minutes. Then, the mean value of ptosis was calculated in each group, and the deviation from that of the control group (i.e. the inhibition) was expressed in percentage. From the data obtained, the ED50 -value and the therapeutical index were determined for each novel compound tested as well as for amitryptiline [5-(3-dimethylaminopropylidine)-10,11-dihydro-5H-dibenzo[a,d]cycloheptene hydrochloride] and traboxopin [2-chloro-12(3-dimethylamino-2-methylpropyl)-12H-dibenzo[d,g][1,3,6]dioxazocine] employed for comparison.

[8] = tested on: arrhythmia provoked by aconitine; test: Antiarrhythmic activity on rats (arrhythmia provoked by aconitine); format: in vivo; details: p.o., 4 mg/kg, 30 minutes prior to aconitine 75 μg/kg i.v.
Protocol: The antiarrhythmic activity of the novel compounds was examined by influencing the arrhythmia provoked by aconitine on rats weighing 160 to 200 g according to a modified method of Marmo et al. [Arzneim.-Forsch., 20, 12 (1970)]. The animals were anaesthetized by the administration of 1.2 g/kg of ethyl urethane, intraperitoneally. Aconitine was given at a dosage of 75 μg/kg, intravenously. The compounds to be tested were administered perorally 30 minutes prior to the treatment with aconitine. In the test, lidocaine and quinidine was employed for comparison.

[9] = mice, p.o., 1 h before electroshock (50 Hz, 45 mA, 0.4 sec), full inhibition of tonic-extensoric spasm, read-out: ED50
[10] = mice, p.o., 1 h before pentetrazole 125 mg/kg i.p., read-out: ED50
[11] = white mice, p.o., 7 days observation, Litchfield and Wilcoxon, read-out: LD50 p.o.

For CC(CN(C)C)CN1c2ccccc2OCOc2ccc(Cl)cc21 (centres unmarked) [traboxopin, 2-chloro-12-(3-dimethylamino-2-methylpropyl)-12H-dibenzo[d,g][1,3,6]dioxazocine], the ED50 [1] was 25 mg/kg, the “Therapeutical index LD50/ED50” value [1] was 10.8 and the “Therapeutical index LD50/ED50” value ([2]; narcosis potentiation) was 10.8. The ED50 [3] was 25 mg/kg, the “Therapeutical index LD50/ED50” value [3] was 10.8 and the ED50 [4, 9] was 54 mg/kg. The “Therapeutical index LD50/ED50” value ([4]; electroshock, mice, p.o.) was 5.0, the ED50 [5, 10] was 32 mg/kg and the “Therapeutical index LD50/ED50” value ([5]; mice, p.o.) was 8.4. The LD50 at 168 h ([6]; reference compounds, printed in Table II, read-out: LD50) was 270 mg/kg.

With OC(CCN1CCCCC1)(c1ccccc1)C1CCCCC1 (centres unmarked) [trihexyphenidyl] the ED50 [3] was 15 mg/kg and the “Therapeutical index LD50/ED50” value [3] was 24.3.

With CC(C)NCCCN1c2ccccc2OCOc2ccc(Cl)cc21 [Example 2, 2-Chloro-12-(3-isopropylaminopropyl)-12H-dibenzo[d,g][1,3,6]dioxazocine maleate] the ED50 [3] was 5.2 mg/kg, the “Therapeutical index LD50/ED50” value [3] was 134.6 and the LD50 at 168 h [6, 11] was 700 mg/kg.

For CNC1=Nc2ccc(Cl)cc2C(c2ccccc2)=[N+]([O-])C1 [chlordiazepoxide, 7-chloro-2-methylamino-5-phenyl-3H-1,4-benzodiazepine-4-oxide], the ED50 [1] was 60 mg/kg, the “Therapeutical index LD50/ED50” value [1] was 10.3 and the ED50 [2] was 10 mg/kg. For the same compound, the “Therapeutical index LD50/ED50” value ([2]; narcosis potentiation) was 62.0.

With CNCCCN1c2ccccc2OCOc2ccc(Cl)cc21 [Example 4, 2-Chloro-12-(3-methylaminopropyl)-12H-dibenzo[d,g][1,3,6]dioxazocine maleate] the ED50 [7] was 7.3 mg/kg, the “Therapeutical index LD50/ED50” value [7] was 98.6 and the Inhibition in percentage ([8]; maleate) was 90.9% and 90%. The ED50 [4] was 40 mg/kg, the “Therapeutical index LD50/ED50” value ([4]; electroshock, mice, p.o.) was 19 and the “Therapeutic index compared with that of the reference compounds” value ([4]; electroshock, mice, statement on Table VII) was 3-5 fold. The ED50 [5, 10] was 25 mg/kg, the “Therapeutical index LD50/ED50” value ([5]; mice, p.o.) was 28.8 and the LD50 at 168 h [6, 11] was 720 mg/kg.

For CN(C)CCC=C1c2ccccc2CCc2ccccc21 [amitryptiline, 5-(3-dimethylaminopropylidine)-10,11-dihydro-5H-dibenzo[a,d]cycloheptene hydrochloride], the ED50 [7] was 12 mg/kg and the “Therapeutical index LD50/ED50” value [7] was 18.7.

With CCCC(C)(COC(N)=O)COC(N)=O [meprobamate, 2-methyl-2-propylpropandiol-1,3-dicarbamate] the ED50 [1] was 270 mg/kg, the “Therapeutical index LD50/ED50” value [1] was 4.1 and the ED50 [2] was 260 mg/kg. The “Therapeutical index LD50/ED50” value ([2]; narcosis potentiation) was 4.2.

With CCC1(c2ccccc2)C(=O)NC(=O)NC1=O [phenobarbital, 5-ethyl-5-phenylbarbituric acid] the ED50 [4] was 24.5 mg/kg, the “Therapeutical index LD50/ED50” value ([4]; electroshock, mice, p.o.) was 6.8 and the ED50 [5] was 19 mg/kg. The “Therapeutical index LD50/ED50” value ([5]; mice, p.o.) was 8.8.

For CNCC(C)CN1c2ccccc2OCOc2ccc(Cl)cc21 (centres unmarked) [Example 3, 2-Chloro-12-(3-methylamino-2-methylpropyl)-12H-dibenzo[d,g][1,3,6]dioxazocine hydrochloride], the ED50 [1] was 27 mg/kg, the “Therapeutical index LD50/ED50” value [1] was 18.50 and the ED50 [2] was 2.4 mg/kg. The “Therapeutical index LD50/ED50” value ([2]; narcosis potentiation) was 208, the “Therapeutical index compared with the known reference compounds” value ([2]; narcosis potentiation, statement on Table II) was “several times higher than that of the known reference compounds” and the ED50 [3] was 6.4 mg/kg. The “Therapeutical index LD50/ED50” value [3] was 78.1, the ED50 [5, 10] was 19 mg/kg and the “Therapeutical index LD50/ED50” value ([5]; mice, p.o.) was 26.3. The LD50 at 168 h [6, 11] was 500 mg/kg.

C=C[C@H]1C[N@@]2CC[C@H]1C[C@@H]2[C@@H](O)c1ccnc2ccc(OC)cc12 [quinidine] gave an Inhibition in percentage [8] of 27.3%.

For CN1C(=O)OC(C)(C)C1=O [trimetadione, 3,5,5-trimethyl-oxazolidine-2,4-dione], the ED50 [4, 9] was 490 mg/kg, the ED50 [5, 10] was 400 mg/kg and the “Therapeutical index LD50/ED50” value ([5]; mice, p.o.) was 5.5.

For CCN(CC)CC(=O)Nc1c(C)cccc1C [lidocaine], the Inhibition in percentage [8] was 23.4%.
